Results: paper PMC9518264, “Design and synthesis of novel quinazolinone-based derivatives as EGFR inhibitors with antitumor activity” (Journal of Enzyme Inhibition and Medicinal Chemistry, 2022)

Assays:
RXF 393 = assay: cells; assay type: cell-based; settings: Homo sapiens; RXF 393; 10 μM; supplementary table 3a-g; read-out: growth inhibition % (GI %)
SR = assay: cells; assay type: cell-based; settings: Homo sapiens, 10 μM, supplementary table 3a-g, read-out: growth inhibition % (GI %)
K-562 = assay: cells; assay type: cell-based; settings: Homo sapiens, K562; K-562; 10 μM; supplementary table 3a-g; read-out: growth inhibition % (GI %)
UO-31 = assay: cells; assay type: cell-based; settings: Homo sapiens; UO-31; 10 μM; supplementary table 3a-g; read-out: growth inhibition % (GI %)
[1] = system: panel of 60 tumour cell lines; assay: NCI 60 cell line antiproliferative screening (SRB), whole panel or subpanels (means, ranges, words); assay type: cell-based, human; settings: Homo sapiens, 60 cell, mean over the cell line panel; 10 μM; supplementary table 3a-g; read-out: Mean inhibition
NCI-H226 = assay: cells; assay type: cell-based; settings: Homo sapiens; NCI-H226; 10 μM; supplementary table 3a-g; read-out: growth inhibition % (GI %)
HOP-92 = assay: cells; assay type: cell-based; settings: Homo sapiens; HOP-92; 10 μM; supplementary table 3a-g; read-out: growth inhibition % (GI %)
caspase-3 = assay: Caspase-3 activation (ELISA) in breast HS 578T cancer cell line; assay type: cell-based, human
Description: Apoptosis is triggered by the activation of caspases, particularly caspase-3, which is an […] caspase responsible for apoptosis. Therefore, the induction of apoptosis by compound 6d was examined by the evaluation of caspase-3 activation in breast HS 578T cancer cell line. The effect of erlotinib as well as untreated cell line was used as positive and negative control, respectively. […] . […]
incubated for 15 minutes in the dark at room temperature. FacsCalibur was used to assess cell fluorescence after incubation (BD Biosciences, USA). The results were represented using dot-plot graphs.
1.1.5. Caspase-3 enzyme assay
The level of the apoptotic marker caspase-3 was measured using Invitrogen ELISA Kit Catalog # KHO1091. The procedure of the used kit was performed according to the manufacturer’s instructions. Let all components to reach room temperature before use. Gently combine all liquid reagents prior to use. Add 100 μL of the standard diluent buffer to the zero standard wells. Add 100 μL of standards and controls or diluted samples to the appropriate microtiter wells. Incubate for 2 h at room temperature. Pipette 100 μL of Caspase-3 (Active) detection antibody solution into each well. […] Read the absorbance of each well at 450 nm. Read the plate within 2 h after adding the stop solution. […] Read the concentrations for unknown samples and controls from the standard curve.

SMILES | inhibition at 10 µM (RXF 393) | inhibition at 10 µM (SR) | inhibition at 10 µM (K-562) | melting point | inhibition at 10 µM (UO-31) | inhibition at 10 µM [1] | inhibition at 10 µM (NCI-H226) | inhibition at 10 µM (HOP-92) | increase of caspase-3 level compared to negative control (caspase-3)
O=c1c2ccccc2nc(NN=Cc2ccc(Oc3ccc(Cl)cc3)cc2)n1-c1ccccc1 [3a, 2–(2-(4–(4-chlorophenoxy)benzylidene)hydrazinyl)-3-phenylquinazolin-4(3H)-one] | < 15% | < 15% | < 15% | 158 to 164 °C | < 15% | < 0% | < 15% | < 15% | 
O=c1c2ccccc2nc(NN=Cc2ccc(Oc3ccc(Br)cc3)cc2)n1-c1ccccc1 [3b, 2–(2-(4–(4-bromophenoxy)benzylidene)hydrazinyl)-3-phenylquinazolin-4(3H)-one] |  | < 15% | < 15% | 198 to 200 °C | < 15% | < 0% |  |  | 
COc1ccc(Oc2ccc(C=NNc3nc4ccccc4c(=O)n3-c3ccccc3)cc2)cc1 [3c, 2–(2-(4–(4-methoxyphenoxy)benzylidene)hydrazinyl)-3-phenylquinazolin-4(3H)-one] | < 15% | 16% | 24.8% | 185 to 188 °C | 21.6% | 1.6% | 15.2% | < 15% | 
O=c1c2ccccc2nc(NN=Cc2ccc(Oc3ccc(Cl)cc3)cc2)n1-c1ccc(Cl)cc1 [3d, 2–(2-(4–(4-chlorophenoxy)benzylidene)hydrazinyl)-3–(4-chlorophenyl)quinazolin-4(3H)-one] |  | < 15% | < 15% | 212 to 214 °C | < 15% | < 0% | < 15% | < 15% | 
O=c1c2ccccc2nc(NN=Cc2ccc(N3CCCCC3)cc2)n1-c1ccccc1 [3e, 3-phenyl-2–(2-(4-(piperidin-1-yl)benzylidene)hydrazinyl)quinazolin-4(3H)-one] | < 15% | < 15% | < 15% | 160 to 166 °C | < 15% | < 0% | < 15% | < 15% | 
O=c1c2ccccc2nc(NN=Cc2ccc(N3CCOCC3)cc2)n1-c1ccccc1 [3f, 2–(2-(4-morpholinobenzylidene)hydrazinyl)-3-phenylquinazolin-4(3H)-one] | < 15% | < 15% | < 15% | 242 to 244 °C | < 15% | < 0% | < 15% | < 15% | 
CN1CCN(c2ccc(C=NNc3nc4ccccc4c(=O)n3-c3ccccc3)cc2)CC1 [3g, 2–(2-(4–(4-methylpiperazin-1-yl)benzylidene)hydrazinyl)-3-phenylquinazolin-4(3H)-one] | 25.1% | < 15% | < 15% | 208 to 210 °C | 21% | < 0% | < 15% | 16% | 
C#Cc1cccc(Nc2ncnc3cc(OCCOC)c(OCCOC)cc23)c1 [Erlotinib, erlotinib, reference compound] |  |  |  |  |  |  |  |  | 8.78 fold
